From patent US7235401B2, “Method for determining cell cycle position” (GE Healthcare UK Limited, priority 2001, dated 2007)
Entries after “also recorded” stand apart in the source; their conditions may differ.

What was measured:
[1] = system: U2-OS cells; experiment: Effect of cell cycle inhibiting drugs on GFP expression levels, FACS analysis of stable EGFP reporter cell line; type: cell-based; conditions: 100 ng/ml demecolcine or 1 mM mimosine for 24 hours (FIG. 9)
Excerpt: The green fluorescent protein reporter sequence in the vector described in example 1 was replaced with enhanced GFP (EGFP; Cormack, B. P. et al, Gene, (1996), 173, 33–38; BD Clontech) by standard methods. The EGFP gene is a brighter form of GFP containing the mutations F64L and S65T. In addition, EGFP contains codons that have been altered to optimise expression in mammalian cells. This new construct was transfected into U2-OS cells and a number of colonies were isolated by selection with geneticin followed by sorting of single cells using a fluorescence activated cell sorter.
The cells were prepared for FACS analysis by standard methods. Briefly the cells were fixed and permeabilised using CytoFix/CytoPerm (Becton Dickinson) according to the manufacturers procedures. The cells were then treated with 50 μg/ml RNAse and 0.4% Triton X-100 and counterstained with 100 μg/ml propidium iodide. The degree of propidium iodide staining is proportional to the amount of DNA in the cell and therefore a measure of the cell cycle phase of the cell. As expected, the degree of red propidium iodide staining and the amount of green GFP fluorescence appear to be proportional in the cells.
The cells prepared in Example 5 were grown in 25 cm^2 flasks and treated with either 100 ng/ml demecolcine (Sigma) or 1 mM mimosine (Sigma) for 24 hours. The cells were then fixed, permeabilised and stained with propidium iodide as described in example 5.

[2] = system: U20S cells (ATCC HTB-96); experiment: Effect of cell cycle blocking agents on GFP fluorescence from cell cycle phase marker using transiently transfected cells; type: cell-based; conditions: U20S cells transiently transfected with cyclin B1 promoter/D-box/CRS-GFP reporter; 24 hours exposure; confocal scanning imager (FIG. 5)
Protocol: U20S cells (ATCC HTB-96) were cultured in wells of a 96 well microtitre plate. Cells were transfected with a cell cycle reporter construct prepared according to Example 1, comprising a cyclin B1 promoter operably linked to sequences encoding the cyclin B1 D-box, the cyclin B1 CRS, and GFP in a pCORON4004 vector (Amersham Biosciences) using Fugene 6 (Roche) as the transfection agent.
Following 24 hours of culture, cells were exposed to the specific cell cycle blockers mimosine (blocks at G1/S phase boundary) or demecolcine (blocks in M phase). Control cells were exposed to culture media alone.
Cells were incubated for a further 24 hours and then analysed for nuclear GFP expression using a confocal scanning imager with automated image analysis (IN Cell Analysis System, Amersham Biosciences).

Row | SMILES | cell cycle phase of arrest (FACS, propidium iodide staining) [1] | relative green fluorescence intensity (FACS, FL1H) [1] | cell cycle phase of arrest (FACS, propidium iodide staining) ([1]; listed as colchicine) | relative green fluorescence intensity (FACS, FL1H) ([1]; listed as colchicine) | nuclear GFP fluorescence compared to control cells [2]
1 | CN[C@H]1CCc2cc(OC)c(OC)c(OC)c2-c2ccc(OC)c(=O)cc21 [demecolcine] | arrested in G2/M | brighter than the cells that had been arrested at G1/S | blocked in G2/M | relatively high green fluorescence | increased fluorescence
2 | NC(Cn1ccc(=O)c(O)c1)C(=O)O (centres unmarked) [mimosine] | partially blocked in G1/S; also recorded: arrested at the G1/S boundary | relatively low green fluorescence | – | – | decreased fluorescence
